For 27 compounds, IC50 results are on record in patent US20040014676A1, “SRC kinase inhibitors useful for treating osteoporosis” (priority 2001, published 2004).

By IC50 is commonly meant the midpoint of a concentration-inhibition curve.

The test deals with T1, Src kinase (Homo sapiens, UniProt P12931).
T1 construct: purchased Upstate Bioteolnology (sic; Upstate Biotechnology); later HMR stock 27597-019E1 #14-117
The experiment in a line: Phosphorylation assay of Src kinase inhibitors (radiometric, 96 well filter plate). In kind it is biochemical. To be noted: duplicates, tested in the range of 400-0.098 µM; 10 µM peptide substrate (FIYGAFKKKKNH2), 5 µM unlabeled ATP, room temperature 30 min; read-out: IC50. Here is the method:
The present invention provides novel compounds of Formulae I through XVIII discussed above. The following compounds which fall within Formulae I through XVIII are characterized by structure, IUPAC name and activity using phosphorylation assay for protein tyrosine Src kinase.
Phosphorylation Assay of Src Kinase Inhibitors
The activity of Src kinase was measured in a 96 well plate phosphorylation assay where the transfer of gamma phosphate from ATP to peptide substrate was measured radiometrically. […] Ki values were determined experimentally for some of the inhibitors. The phosphocellulose filter plates (Millipore catalog #MAPH NOB) were prewet prior to the phosphorylation assay by addition of 100 1 per well of 30 mM MES buffer+0.4 mg/ml BSA. After a 20-minute incubation, the buffer was removed completely via a Millipore vacuum manifold. The phosphorylation assay was then set up in the filter plates in a total volume per well of 60 1. The 60 1 consisted of compound (see concentration ranges above), a 1:100 dilution of Src kinase (originally Upstate Bioteolnology, #14-117; later HMR stock 27597-019E1) or assay buffer alone (for no enzyme control wells), 10 M peptide substrate (FIYGAFKKKKNH2), 5 M unlabeled ATP and a 1:500 dilution of P-ATP (New England Nuclear, catalog #NEG-602H, 2000 Ci/mmol). The reaction was mixed and incubated at room temperature for 30 min. The kinase reactions were stopped by addition of 150 mM H3PO4 and incubated for 10 minutes. The filter plate wells were filtered and washed seven times with 200 1 per well of 150 mM H3PO4. Finally, the filter plate was placed into a Packard plate adapter (Packard catalog #600517B), 35 1 of Microscint-20 (Packard catalog #6013621) was added to each well, the plate was sealed (TopSeal A sealers; Packard catalog #6005185) and counted on a Packard TopCount.

`N[C@@H](Cc1ccc(O)cc1)C(=O)NCCCCOc1c(O)cc(C(=O)NCC(=O)CCCO)cc1O` [Example 3, ALPHA(S)-AMINO-N-[4-[2,6-DI- HYDROXY-4-[[(5-HYDROXY-2-OXO- PENTYL)AMINO]CARBONYL]- PHENOXY] BUTYL]-4- HYDROXYBENZENEPROPANAMIDE]: the IC50 was not below 500 µM.
Turning to `N[C@@H](Cc1ccc(O)cc1)C(=O)NCCCCOc1cc2ccccc2cc1C(=O)NCC(=O)NCCCO` [Example 99, 3-[[4-[[1-OXO-2(S)-AMINO-3-(4- HYDROXYPHENYL)]PROPYL]AMINO]- BUTOXY]NAPHTHALENE-2-[N-[[[[3- HYDROXYPROPYL]AMINO]- CARBONYL]METHYL]]CARBOXAMIDE], the IC50 came to 0.49 µM.
To `NC(=O)CNC(=O)c1cc2ccccc2cc1OCCCCNC(=O)[C@@H](N)CC1CCCCC1` [Example 49, 3-[[4-[[2(S)-AMINO-3(CYCLOHEXYL)-1- OXO]PROPYL]AMINO]BUTOXY]- NAPHTHALENE-2-(N-ACETAMIDO)- CARBOXAMIDE] belongs 0.92 µM; to `NC(=O)CNC(=O)c1cc2ccccc2cc1OCCCCNC(=O)[C@H](N)Cc1ccc(O)cc1` [Example 56, 3-[4-[[[2(R)-AMINO-3-(4-HYDROXY- PHENYL-1-OXO]PROPYL]AMINO]- BUTOXY]-NAPHTHALENE-2-(N- ACETAMIDO)CARBOXAMIDE], 50 µM.
`NCCCCC(NC(=O)c1cc2ccccc2cc1OCCCCNC(=O)[C@@H](N)Cc1ccc(O)cc1)C(N)=O` (stereo partly drawn) [Example 8, 3-[4-[[2(S)-AMINO-3-(4-HYDROXY- PHENYL)-1-OXOPROPYL]AMINO]- BUTOXY]-NAPHTHALENE-2-[N-[[(4- AMINOBUTYL)(AMIDO)]METHYL]- ACETAMIDO]CARBOXAMIDE]: the IC50 was 348 µM.
As for `COc1ccc2cc(OCCCCNC(=O)[C@@H](N)Cc3ccc(O)cc3)c(C(=O)NCC(N)=O)cc2c1` [Example 106, 3-[[4-[[2(S)-AMINO-3-(4-HYDROXY- PHENYL)-1-OXOPROPYL]AMINO]- BUTOXY]-7-METHOXY- NAPHTHALENE-2-[N-ACETAMIDO]- CARBOXAMIDE], the IC50 was found to be 2.5 µM.
As to `N=C(N)N[C@@H](Cc1ccc(O)cc1)C(=O)NCCCCOc1cc2ccccc2cc1C(=O)NCC(N)=O` [Example 73, 3-[4-[[[(1-OXO-2-[(N-AMINOIMINO- METHYL)(S)AMINO]-3-(4-HYDROXY- PHENYL)]PROPYL]AMINO]BUTOXY]- NAPHTHALENE-2-(N-ACETAMIDO)- CARBOXAMIDE], the half-inhibitory concentration (IC50) was 6 µM.
To `CC(C)C[C@H](N)C(=O)NCCCCOc1cc2ccccc2cc1C(=O)NCC(N)=O` [Example 15, 3-[4-[[2(S)-AMINO-3-(ISOPROPYL)-1- OXOPROPYL]AMINO]BUTOXY]- NAPHTHALENE-2-[N-(2- AMIDOMETHYL)]CARBOXAMIDE] belongs 4.8 µM; to `NC(=O)CNC(=O)c1cc2ccccc2cc1OCCCCNC(=O)C1Cc2ccc(O)cc2CN1` (stereo not drawn) [Example 20, 3-[N-[[(7-HYDROXY)-1,2,3,4-TETRA- HYDROISOQUINOLIN-3-YL]- CARBONYL]AMINO]BUTOXY]- NAPHTHALENE-2-[N-(2- AMIDOMETHYL)]CARBOXAMIDE], 3.8 µM; to `C[N+](C)(C)[C@@H](Cc1ccccc1)C(=O)NCCCCOc1cc2ccccc2cc1C(=O)NCC(N)=O` [Example 69], 14 µM.
As for `NC(=O)CNC(=O)c1cc2ccccc2cc1OCCCCNC(=O)[C@@H](N)Cc1csc2ccccc12` [Example 51, 3-[[4-[[2(S)-AMINO-3-(BENZO- THIOPHEN-3-YL)-1-OXO]PROPYL]- AMINO]BUTOXY]-NAPHTHALENE-2- (N-ACETAMIDO)CARBOXAMIDE], the IC50 came out at 0.1 µM.
Take `CC(c1ccc(Cl)c(Cl)c1)[C@H](N)C(=O)NCCCCOc1cc2ccccc2cc1C(=O)NCC(N)=O` (stereo partly drawn) [Example 60, 3-[4-[[[2(S)-AMINO-3(3,4-DICHLORO- PHENYL)-1-OXO]BUTYL]AMINO]- BUTOXY]-NAPHTHALENE-2-(N- ACETAMIDO)CARBOXAMIDE]: the IC50 amounted to 1.56 µM.
With `C[C@H](N)C(=O)NCCCCOc1cc2ccccc2cc1C(=O)NCC(N)=O` [Example 65, 3-[4-[[(1-OXO-2(S)-AMINO)PROPYL]- AMINO]BUTOXY]-NAPHTHALENE-2- (N-ACETAMIDO)CARBOXAMIDE], the IC50 worked out at 101 µM.
On to `NC(=O)CNC(=O)c1cc2ccccc2cc1OCCCCNC(=O)[C@@H](N)Cc1c(F)c(F)c(F)c(F)c1F` [Example 43, 3-[[4-[[2(S)-AMINO-3-(2,3,4,5,6- PENTAFLUORO)PHENYL-1-OXO]- PROPYL]AMINO]BUTOXY]- NAPHTHALENE-2- (N-ACETAMIDO)CARBOXAMIDE], for which the IC50 was 1.38 µM.
`NC(=O)CC(=O)Nc1cc2ccccc2cc1OCCCCNC(=O)[C@@H](N)Cc1csc2ccccc12` [Compound 152, (2S)-2-amino-3-benzo[b]thiophen-3-yl-N-{4-[3-(2-carbamoylacetylamino)(2-naphthyloxy)]butyl}propanamide]: the IC50 was found to be 1 µM.
For `NC(=O)CNC(=O)c1cc2ccccc2cc1OCCCCNC(=O)[C@@H](N)Cc1ccccc1` [Example 14, 3-[4-[[2(S)-AMINO-3-(PHENYL)-1- OXOPROPYL]AMINO]BUTOXY]- NAPHTHALENE-2-[N-(2- AMIDOMETHYL)]CARBOXAMIDE], the IC50 was determined as 0.98 µM.
For the compound `NC(=O)CNC(=O)c1cc2ccccc2cc1OCCCCNC(=O)[C@@H](N)Cc1csc2ccccc12` [Example 44, 3-[[4-[[2(S)-AMINO-3(BENZOTHIOPHEN- 3-YL)-1-OXO]PROPYL]AMINO]- BUTOXY]-NAPHTHALENE-2- (N-ACETAMIDO)CARBOXAMIDE], the IC50 came out at 0.23 µM.
As for `N[C@@H](Cc1ccc(O)cc1)C(=O)NCCCCOc1ccc2ccccc2c1C(=O)NCC(=O)NCCCO` [Example 117, 2-[[4-[[1-OXO-2(S)-AMINO-3-(4- HYDROXYPHENYL)]PROPYL]AMINO]BUTOXY]NAPHTHALENE-1-[N-[[(3- HYDROXYPROPYLAMINO)- CARBONYL]METHYL]]CARBOXAMIDE], the IC50 was found to be 47 µM.
`Cc1nc(-c2ccc(CC(N)C(=O)NCCCCOc3cc4ccccc4cc3C(=O)NCC(N)=O)cc2)no1` (stereo in doubt) [Compound 135, (2S)-2-amino-N-(4-{3-[N-(carbamoylmethyl)carbamoyl](2-naphtyloxy)}butyl)-3-[4-(5-methyl(1,2,4-oxadizol-3-yl))phenyl]propanamide]: the IC50 turned out to be 29 µM.
`NC(=O)CNC(=O)c1cc2ccccc2cc1OCCCCNC(=O)[C@@H](N)Cc1ccc(O)c(I)c1` [Example 46, 3-[[4-[[2(S)-AMINO-3(3-IODO-4- HYDROXYPHENYL)-1-OXO]PROPYL]- AMINO]BUTOXY]-NAPHTHALENE-2- (N-ACETAMIDO)CARBOXAMIDE]: the IC50 turned out to be 0.31 µM.
Regarding `CNC(=O)C(Cc1ccc(-c2noc(C)n2)cc1)C(=O)NCCCCOc1cc2ccccc2cc1C(=O)NCC(N)=O` (stereo not drawn) [Compound 134, N-(4-{3-[N-(carbamoylmethyl)carbamoyl](2-naphthyloxy)}butyl)-N′-methyl-2-{[4-(5-methyl(1,2,4-oxadiazol-3-yl))phenyl]methyl}propane-1,3-diamide], the IC50 was found to be 76 µM.
Regarding `CC(C)(C)C(=O)NCCCCOc1cc2ccccc2cc1C(=O)NCC(N)=O` [Example 66, 3-[4-[[(1-OXO-2,2-DIMETHYL)PROPYL]- AMINO]BUTOXY]-NAPHTHALENE-2- (N-ACETAMIDO)CARBOXAMIDE], the IC50 was 6 µM.
With `NC(=O)CNC(=O)c1c(Cl)c(Cl)cc(Cl)c1OCCCCNC(=O)[C@@H](N)Cc1ccc(O)cc1` [Compound 136, (2S)-2-amino-N-(4-{2-[N-(carbamoylmethyl)carbamoyl]-3,4,6-trichlorophenoxy)butyl)-3-(4-hydroxyphenyl)propanamide] the figure was 200 µM.
On to “3-[[4-[[1-OXO-2(S)-AMINO-3-(4- HYDROXYPHENYL)]PROPYL]AMINO]BUTOXY]-7-METHOXY- NAPHTHALENE-2-[N-[[(3-HYDROXY- PROPYLAMINO)-CARBONYL]- METHYL]]CARBOXAMIDE [Example 118]”, for which the half-inhibitory concentration (IC50) is 47 µM.
As for `NCCCCOc1cc2ccccc2cc1C(=O)NCC(N)=O` [Example 26, 3-(4-AMINOBUTOXY)-NAPHTHALENE- 2-[N-ACETAMIDO]CARBOXAMIDE], the IC50 is 25 µM.
For the compound `NC(=O)CNC(=O)[C@@H](Cc1cccc2ccccc12)NCCCCCNC(=O)[C@H](N)Cc1csc2ccccc12` [Example 82, N-[((R)NAPHTH-1-YL)[(AMINO)- (CARBONYL)(METHYL)(AMINO)- (CARBONYL)]METHYL]-5-[N-[[N-[1- OXO-2-AMINO-3-(R)(BENZOTHIOPHEN- 3-YL)]PROPYL]AMINO]PENTYLAMINE], the IC50 worked out at 6 µM.
`NC(=O)CNC(=O)c1cc2ccccc2cc1OCCCCNC(=O)[C@@H](N)c1ccccc1` [Example 37, 3-[[4-[(2(S)-AMINO-2-PHENYL-1- OXO)ETHYL]AMINO]BUTOXY]- NAPHTHALENE-2-(N- ACETAMIDO)CARBOXAMIDE]: the IC50 came out at 3.3 µM.
